Measurements reported in paper PMC3997483, “Aminostyrylbenzofuran Directly Reduces Oligomeric Amyloid-β and Reverses Cognitive Deficits in Alzheimer Transgenic Mice” (PLoS ONE, 2014).

System: SD rats
Experiment: 2-week repeated oral dose toxicity study
Format: in vivo
Settings: for A / G ratio / ALP / ALT / AST / Albumin / B / C ratio / BUN / CHO / CK / CRE / Glucose / K^+ / LDH / Na^+ / T-Bil / TG (triglyceride) / TP: serum
Protocol: KMS88009 was orally administered once a day by gavage for 14 consecutive days at dose level of 0 (vehicle), 100, 300 and 1,000 mg/kg (n = 5 per group). […] Organs were collected at necropsy; adrenal, kidney, thymus, spleen, heart, lung, liver, testis and brain. The absolute organ weights were measured and the organs-to-body weight ratios were calculated. Blood samples for hematological evaluation were collected from vein of animals under ether anesthesia. Food was withheld overnight before necropsy and blood collections. EDTA was used as an anticoagulant for hematology samples. White blood cell (WBC), red blood cell (RBC), hemoglobin concentration (HGB), hematocrit (HCT), mean corpuscular volume (MCV), mean corpuscular hemoglobin (MCH), mean corpuscular hemoglobin concentration (MCHC), cell hemoglobin concentration mean (CHCM), cell hemoglobin (CH), red cell distribution width (RDW), hemoglobin distribution width (HDW), platelet count (PLT), mean platelet volume (MPV) and reticulocyte were measured by a hematological autoanalyzer (ADVIA 120, Bayer, USA). To get the serum for biochemical analyses, blood samples in a separation tube were centrifuged at 4,000 rpm for 10 min on the day of necropsy. The serum was kept frozen at -70°C until analysis. Sodium citrate was used as an anticoagulant for biochemical analyses. Serum biochemical parameters including aspartate aminotransferase (AST), alanine aminotransferase (ALT), alkaline phosphatase (ALP), total bilirubin (T-Bil), albumin, total protein (TP), albumin/globulin ratio (A/G ratio), glucose, total cholesterol (CHO), triglyceride (TG), lactate dehydrogenase (LDH), creatine kinase (CK), blood urea nitrogen (BUN), creatinine (CRE), blood urea nitrogen/creatinine ratio (B/C ratio), Na^+, K^+ and Cl^- were evaluated by an autoanalyzer (Shimadzu CL-7200, Shimadzu Co., Japan).
All data for single and 2-week repeated oral dose toxicity studies were expressed as the mean ± SD Difference between control and treated groups were evaluated with one-way analysis of variance (ANOVA) followed by Dunnett's test. Value P<0.05 was taken as being statistically significant. Statistical analyses were performed using GraphPad Prism software (USA).

[1] = rats PO 1,000 mg/kg/day, 2 weeks

For `COc1ccc2cc(C=Cc3ccc(N(C)C)cc3)oc2c1` [KMS88009, 6-methoxy-2-(4-dimethylaminostyryl) benzofuran], the Body weight (rats PO 300 mg/kg/day, day 11) was 317.6 ± 17.0 g, the Body weight (rats PO 300 mg/kg/day, day 14) was 338.5 ± 16.9 g and the “Abnormal gross findings of necropsy (changed animals / total)” value [1] was 0 / 5. For the same molecule, the Basophils [1] was 0.01 ± 0.01 x10^3/μL, the “Body Weight (at necropsy)” value [1] was 319.932 ± 12.441 g and the Brain weight [1] was 1.922 ± 0.009 g. For the same molecule, the CH [1] was 20.0 ± 0.5 pg, the CHCM [1] was 34.1 ± 0.4 g/dL and the Eosinophils [1] was 0.05 ± 0.04 x10^3/μL. For the same molecule, the HDW [1] was 2.29 ± 0.09 g/dL, the Heart weight [1] was 1.074 ± 0.065 g and the Hematocrit [1] was 42.1 ± 2.2%. For the same molecule, the Hemoglobin [1] was 14.0 ± 0.8 g/dL, the LUC [1] was 0.06 ± 0.04 x10^3/μL and the Left adrenal weight [1] was 0.025 ± 0.004 g. The Left kidney weight [1] was 1.342 ± 0.067 g, the Left testis weight [1] was 1.366 ± 0.053 g and the Liver weight [1] was 11.173 ± 0.202 g. For the same molecule, the Lung weight [1] was 1.279 ± 0.094 g, the Lympocytes [1] was 6.50 ± 3.11 x10^3/μL and the MCH [1] was 19.6 ± 0.5 pg. It also gave an MCHC [1] of 33.3 ± 0.6 g/dL, an MCV [1] of 59.0 ± 1.0 fL and an MPV [1] of 7.58 ± 0.3 fL. For the same molecule, the Monocytes [1] was 0.13 ± 0.05 x10^3/μL, the “Mortality (dead animals / total number of animals)” value [1] was 0 / 5 and the Neutrophils [1] was 1.08 ± 0.46 x10^3/μL. For the same molecule, the Platelet [1] was 1325 ± 141 x10^3/μL, the RBC [1] was 7.14 ± 0.27 x10^6/μL and the RDW [1] was 12.1 ± 0.2%. For the same molecule, the “Rate body weight / brain” value [1] was 0.601 ± 0.024%, the “Rate body weight / heart” value [1] was 0.336 ± 0.014% and the “Rate body weight / left adrenal” value [1] was 0.008 ± 0.001%. For the same molecule, the “Rate body weight / left kidney” value [1] was 0.420 ± 0.025%, the “Rate body weight / left testis” value [1] was 0.427 ± 0.025% and the “Rate body weight / liver” value [1] was 3.495 ± 0.093%. The “Rate body weight / lung” value [1] was 0.400 ± 0.030%, the “Rate body weight / right adrenal” value [1] was 0.008 ± 0.001% and the “Rate body weight / right kidney” value [1] was 0.418 ± 0.030%. The “Rate body weight / right testis” value [1] was 0.427 ± 0.021%, the “Rate body weight / spleen” value [1] was 0.234 ± 0.031% and the “Rate body weight / thymus” value [1] was 0.194 ± 0.017%. The Retic [1] was 307.4 ± 32.8 x10^3/μL, the Right adrenal weight [1] was 0.026 ± 0.003 g and the Right kidney weight [1] was 1.334 ± 0.067 g. For the same molecule, the Right testis weight [1] was 1.365 ± 0.036 g, the Spleen weight [1] was 0.749 ± 0.112 g and the Symptomatic signs [1] was “-”. For the same molecule, the Thymus weight [1] was 0.621 ± 0.073 g, the WBC [1] was 7.83 ± 3.64 x10^3/μL and the Body weight (rats PO 1,000 mg/kg/day, day 1) was 228.3 ± 6.5 g. For the same molecule, the Body weight (rats PO 1,000 mg/kg/day, day 4) was 251.1 ± 8.6 g, the Body weight (rats PO 1,000 mg/kg/day, day 8) was 296.4 ± 14.2 g and the Body weight (rats PO 1,000 mg/kg/day, day 11) was 323.0 ± 15.8 g. The Body weight (rats PO 1,000 mg/kg/day, day 14) was 346.6 ± 16.1 g, the “A / G ratio” value (rats PO 100 mg/kg/day, 2 weeks) was 0.82 ± 0.08 and the ALP (rats PO 100 mg/kg/day, 2 weeks) was 723.4 ± 40.3 IU/L. It also gave an ALT (rats PO 100 mg/kg/day, 2 weeks) of 37.3 ± 6.2 IU/L, an AST (rats PO 100 mg/kg/day, 2 weeks) of 152.3 ± 47.1 IU/L and an Albumin (rats PO 100 mg/kg/day, 2 weeks) of 2.52 ± 0.18 g/dL. The “B / C ratio” value (rats PO 100 mg/kg/day, 2 weeks) was 28.3 ± 6.1, the BUN (rats PO 100 mg/kg/day, 2 weeks) was 12.2 ± 1.5 mg/dL and the CHO (rats PO 100 mg/kg/day, 2 weeks) was 79.4 ± 15.2 mg/dL. For the same molecule, the CK (rats PO 100 mg/kg/day, 2 weeks) was 258.4 ± 54.3 IU/L, the CRE (rats PO 100 mg/kg/day, 2 weeks) was 0.44 ± 0.05 mg/dL and the Glucose (rats PO 100 mg/kg/day, 2 weeks) was 159.2 ± 23.5 mg/dL. The “K^+” value (rats PO 100 mg/kg/day, 2 weeks) was 4.58 ± 0.43 mmol/L, the LDH (rats PO 100 mg/kg/day, 2 weeks) was 168.0 ± 36.4 IU/L and the “Na^+” value (rats PO 100 mg/kg/day, 2 weeks) was 140.5 ± 1.2 mmol/L. The T-Bil (rats PO 100 mg/kg/day, 2 weeks) was 0.01 ± 0.01 mg/dL, the “TG (triglyceride)” value (rats PO 100 mg/kg/day, 2 weeks) was 47.0 ± 29.5 mg/dL and the TP (rats PO 100 mg/kg/day, 2 weeks) was 5.66 ± 0.17 g/dL. The “A / G ratio” value (rats PO 300 mg/kg/day, 2 weeks) was 0.77 ± 0.06, the ALP (rats PO 300 mg/kg/day, 2 weeks) was 755.6 ± 165.7 IU/L and the ALT (rats PO 300 mg/kg/day, 2 weeks) was 32.9 ± 4.7 IU/L. For the same molecule, the AST (rats PO 300 mg/kg/day, 2 weeks) was 149.2 ± 24.3 IU/L, the Albumin (rats PO 300 mg/kg/day, 2 weeks) was 2.4 ± 0.00 g/dL and the “B / C ratio” value (rats PO 300 mg/kg/day, 2 weeks) was 29.6 ± 8.1. The BUN (rats PO 300 mg/kg/day, 2 weeks) was 12.3 ± 2.8 mg/dL, the CHO (rats PO 300 mg/kg/day, 2 weeks) was 81.8 ± 11.6 mg/dL and the CK (rats PO 300 mg/kg/day, 2 weeks) was 222.0 ± 56.7 IU/L. For the same molecule, the CRE (rats PO 300 mg/kg/day, 2 weeks) was 0.42 ± 0.04 mg/dL, the Glucose (rats PO 300 mg/kg/day, 2 weeks) was 148.0 ± 23.5 mg/dL and the “K^+” value (rats PO 300 mg/kg/day, 2 weeks) was 4.73 ± 0.26 mmol/L. For the same molecule, the LDH (rats PO 300 mg/kg/day, 2 weeks) was 127.2 ± 47.0 IU/L, the “Na^+” value (rats PO 300 mg/kg/day, 2 weeks) was 139.8 ± 1.8 mmol/L and the T-Bil (rats PO 300 mg/kg/day, 2 weeks) was 0.02 ± 0.01 mg/dL. For the same molecule, the “TG (triglyceride)” value (rats PO 300 mg/kg/day, 2 weeks) was 29.4 ± 7.2 mg/dL, the TP (rats PO 300 mg/kg/day, 2 weeks) was 5.56 ± 0.23 g/dL and the “A / G ratio” value [1] was 0.76 ± 0.04. It also gave an ALP [1] of 736.0 ± 109.1 IU/L, an ALT [1] of 32.7 ± 7.8 IU/L and an AST [1] of 162.0 ± 19.1 IU/L. The Albumin [1] was 2.44 ± 0.05 g/dL, the “B / C ratio” value [1] was 29.7 ± 2.0 and the BUN [1] was 11.9 ± 0.8 mg/dL. The CHO [1] was 80.4 ± 18.2 mg/dL, the CK [1] was 260.2 ± 62.0 IU/L and the CRE [1] was 0.4 ± 0.00 mg/dL. The Glucose [1] was 141.3 ± 15.6 mg/dL, the “K^+” value [1] was 4.87 ± 0.22 mmol/L and the LDH [1] was 126.0 ± 53.9 IU/L. The “Na^+” value [1] was 140.1 ± 1.2 mmol/L, the T-Bil [1] was 0.02 ± 0.01 mg/dL and the “TG (triglyceride)” value [1] was 30.8 ± 7.7 mg/dL. It also gave a TP [1] of 5.62 ± 0.19 g/dL.
